Source: US7910559B2, “Decladinosyl-macrolides with anti-inflammatory activity” (GlaxoSmithKline istrazivacki centar Zagreb d.o.o., priority 2005, dated 2011)
Where two headings read alike, the source gives them in different places.

Key:
Format in all cases: cell-based
[1] = system: human IL-1β; assay: Inhibition of IL-1β production by stimulated human peripheral blood leukocytes in vitro (ELISA); conditions: Homo sapiens, Leukocyte, PBL, read-out: Percentage of inhibition of IL-1β production; for inhibition at 10 µM: compound 10 μM; for inhibition at 50 µM: compound 50 μM
In short: (§1)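 Human PBL from healthy donors preincubated 2 h at 37 °C with compound, then stimulated overnight with 2 μg/mL LPS, 1 μg/mL PMA or 120 μg/mL zymosan. Supernatant cytokines measured by sandwich ELISA. % inhibition is relative to stimulated, untreated cells.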

[2] = system: human TNF-α; assay: Inhibition of TNF-α production by stimulated human peripheral blood leukocytes in vitro (ELISA); conditions: Homo sapiens, Leukocyte, PBL, read-out: Percentage of inhibition of TNF-α production; for inhibition at 10 µM: compound 10 μM; for inhibition at 50 µM: compound 50 μM
In short: as §1

[3] = system: human IL-6; assay: Inhibition of IL-6 production by stimulated human peripheral blood leukocytes in vitro (ELISA); conditions: Homo sapiens, Leukocyte, PBL, read-out: Percentage of inhibition of IL-6 production; for inhibition at 10 µM: compound 10 μM; for inhibition at 50 µM: compound 50 μM
In short: as §1

[4] = system: A549; conditions: human, 24 h
In short: (§2)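 MTT cytotoxicity read-out: cells were exposed to compound at 50 μM and 12.5 μM for 24 hours at 37° C in RPMI, then MTT was added for 0.5-2 hours. Formazan absorbance at 490 nm gave the percentage of viable cells relative to untreated cells.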

[5] = system: THP-1; conditions: human, 24 h
In short: as §2

[6] = system: Hep G2; conditions: human, 24 h
In short: as §2

[7] = system: human peripheral blood mononuclear cells (PBMC); assay: Human peripheral blood mononuclear cell proliferation in vitro ((3H)thymidine incorporation); conditions: Homo sapiens, PBMC, read-out: Percentage of inhibition of proliferation of stimulated PBMC; for inhibition at 10 µM: compound 10 μM; for inhibition at 50 µM: compound 50 μM
Description: Substances, used in in vitro experiments, were dissolved in dimethyl sulfoxide (DMSO) (Kemika, Croatia) at concentrations of 50 mM and 10 mM and were further diluted to the final concentrations of […] in 1 mL Dulbecco's modified Eagle medium (DMEM) supplemented with 1% heat inactivated fetal bovine serum (FBS), 1% glutamax, 50 U/ml penicillin, 50 μg/ml streptomycin and 2.5 μg/mL Fungizone (amphotericin B). Media and all media supplements were purchased from Gibco, Australia, except FBS that was from Sigma, USA.
Heparinized peripheral blood was obtained from healthy donors, and peripheral blood mononuclear cells (PBMC) were isolated by Histopaque 1077 (Sigma, USA) density centrifugation at 400 g for 30 minutes. Collected PBMC were centrifuged in plasma at 400 g/10 min, resuspended and washed in RPMI 1640 (Institute of Immunology, Croatia) by centrifugation.
Influence of substances at two different concentrations (50 μM and 10 μM) on proliferation of human peripheral blood mononuclear cells (PBMC) was assessed.
Heparinized peripheral blood was obtained from healthy donors, and PBMC were isolated by Histopaque 1077 (Sigma, USA) density centrifugation at 400 g for 30 minutes. 5×10^4 cells/well were cultured for 3 days in the RPMI medium as described above, in the presence (positive control) or absence (negative control) of stimulators [PHA (2.5 μg/mL) (Sigma, USA) or both PMA (10 ng/mL) (Sigma, USA) and ionomycin (500 ng/mL) (Calbiochem, USA)] and tested substances at 37° C. in 5% CO2 and 90% humidity. The cells were pulsed with 1 μCi of (^3H)thymidine (Amersham, USA) per well during the last 18 h of the cultures and were harvested on a 96-well filter (Packard Bioscience, USA) with a multiple cell harvester (Packard, USA). The incorporation of (^3H)thymidine in activated cells was measured by TopCount NXT (Packard, USA).
Inhibition of cell proliferation (as a percentage) was calculated using the following formula: % inhibition=(1−(^3H)thymidine incorporation expressed in counts per minute (cpm) in sample/(3H)thymidine incorporation expressed in cpm in positive control)×100 where “positive control” refers to stimulated samples not treated with substances.

[8] = system: human IL-8; assay: Inhibition of IL-8 production by stimulated human peripheral blood leukocytes in vitro (ELISA); conditions: Homo sapiens, Leukocyte, PBL, read-out: Percentage of inhibition of IL-8 production; for inhibition at 10 µM: compound 10 μM; for inhibition at 50 µM: compound 50 μM
In short: as §1

| Compound | inhibition at 10 µM ([1]; LPS stimulation) [%] | inhibition at 50 µM ([1]; LPS stimulation) [%] | inhibition at 10 µM ([1]; PMA stimulation) [%] | inhibition at 50 µM ([1]; PMA stimulation) [%] | inhibition at 10 µM ([1]; zymosan stimulation) [%] | inhibition at 50 µM ([1]; zymosan stimulation) [%] | inhibition at 10 µM ([2]; LPS stimulation) [%] | inhibition at 50 µM ([2]; LPS stimulation) [%] | inhibition at 10 µM ([2]; PMA stimulation) [%] | inhibition at 50 µM ([2]; PMA stimulation) [%] | inhibition at 10 µM ([2]; zymosan stimulation) [%] | inhibition at 50 µM ([2]; zymosan stimulation) [%] | inhibition at 10 µM ([3]; LPS stimulation) [%] | inhibition at 50 µM ([3]; LPS stimulation) [%] | inhibition at 10 µM ([3]; PMA stimulation) [%] | inhibition at 50 µM ([3]; PMA stimulation) [%] | inhibition at 10 µM ([3]; zymosan stimulation) [%] | inhibition at 50 µM ([3]; zymosan stimulation) [%] | Percentage of viable cells after treatment ([4]; 12.5 μM) [%] | Percentage of viable cells after treatment ([4]; 50 μM) [%] | other results |
| --- | --- | --- | --- | --- | --- | --- | --- | --- | --- | --- | --- | --- | --- | --- | --- | --- | --- | --- | --- | --- | --- |
| CC[C@H]1OC(=O)[C@H](C)[C@@H](OC(=O)CCN(CC)CC)[C@H](C)[C@@H](O[C@@H]2O[C@H](C)C[C@H](N(C)C)[C@H]2O)[C@](C)(OC)C[C@@H](C)C(=O)[C@H](C)[C@@H](O)[C@]1(C)O [Example 5, 3-O-(3-Diethylamino-propionyl)-3-O-decladinosyl-6-O-methyl-erythromycin A] | 75 | 80 | 91 | 100 | 68 | 100 | 3 | 92 | 29 | 100 | 17 | 100 | 38 | 100 | 78 | 100 | 51 | 100 | 100 | 100 | Percentage of viable cells after treatment ([5]; 12.5 μM): 100%; Percentage of viable cells after treatment ([5]; 50 μM): >80%; Percentage of viable cells after treatment ([6]; 12.5 μM): >86%; Percentage of viable cells after treatment ([6]; 50 μM): 100%; inhibition at 10 µM ([7]; PHA stimulation): 99%; inhibition at 50 µM ([7]; PHA stimulation): 100%; inhibition at 10 µM ([7]; PMA + ionomycin stimulation): 90%; inhibition at 50 µM ([7]; PMA + ionomycin stimulation): 100%; inhibition at 10 µM ([8]; LPS stimulation): 22%; inhibition at 50 µM ([8]; LPS stimulation): 95%; inhibition at 10 µM ([8]; PMA stimulation): 48%; inhibition at 50 µM ([8]; PMA stimulation): 83%; inhibition at 10 µM ([8]; zymosan stimulation): 48%; inhibition at 50 µM ([8]; zymosan stimulation): 100% |
| CC[C@H]1OC(=O)[C@H](C)[C@@H](O[C@H]2C[C@@](C)(OC)[C@@H](O)[C@H](C)O2)[C@H](C)[C@@H](O[C@@H]2O[C@H](C)C[C@H](N(C)C)[C@H]2O)[C@](C)(O)C[C@@H](C)CN(C)[C@H](C)[C@@H](O)[C@]1(C)O [azithromycin, reference compound] | 28 | 48 | 0 | 0 | 20 | 75 | 36 | 20 | 0 | 0 | 6 | 64 | 15 | 40 | 0 | 0 | 20 | 75 | 100 | 100 | Percentage of viable cells after treatment ([5]; 12.5 μM): 100%; Percentage of viable cells after treatment ([5]; 50 μM): >95%; Percentage of viable cells after treatment ([6]; 12.5 μM): 100%; Percentage of viable cells after treatment ([6]; 50 μM): >95%; inhibition at 10 µM ([7]; PHA stimulation): 5%; inhibition at 50 µM ([7]; PHA stimulation): 29%; inhibition at 10 µM ([7]; PMA + ionomycin stimulation): 9%; inhibition at 50 µM ([7]; PMA + ionomycin stimulation): 31%; inhibition at 10 µM ([8]; LPS stimulation): 0%; inhibition at 50 µM ([8]; LPS stimulation): 0%; inhibition at 10 µM ([8]; PMA stimulation): 0%; inhibition at 50 µM ([8]; PMA stimulation): 0%; inhibition at 10 µM ([8]; zymosan stimulation): 0%; inhibition at 50 µM ([8]; zymosan stimulation): 0% |
